From ChEMBL document CHEMBL1144896 (2003)

Key:
[1] = tested on: NCI-H1299; experiment: Compound was tested for human telomerase reverse transcriptase-SEAP (hTERT-SEAP) activity in non-small cell lung cancer H1299 cell at 240.0 uM concentration; format: functional
[2] = tested on: NCI-H1299; experiment: Compound was tested for human telomerase reverse transcriptase-SEAP (hTERT-SEAP) activity in non-small cell lung cancer H1299 cell at 24 uM concentration; format: functional
[3] = tested on: BJ; experiment: Compound was tested for human telomerase reverse transcriptase-SEAP (hTERT-SEAP) activity in immortalized hTERT-BJI at 2.4 uM concentration; format: functional
[4] = tested on: NCI-H1299; experiment: Compound was tested for human telomerase reverse transcriptase-SEAP (hTERT-SEAP) activity in non-small cell lung cancer H1299 cell at 2.4 uM concentration; format: functional
[5] = tested on: NCI-H1299; experiment: hTERT-SEAP (Human telomerase reverse transcriptase-SEAP) activity in non-small cell lung cancer H1299 cell at 24 uM concentration and level of cell viability determined in MTT assay; format: functional
[6] = tested on: BJ; experiment: Compound was tested for human telomerase reverse transcriptase-SEAP (hTERT-SEAP) activity in immortalized hTERT-BJI at 240.0 uM concentration; format: functional
[7] = tested on: NCI-H1299; experiment: hTERT-SEAP (Human telomerase reverse transcriptase-SEAP) activity in non-small cell lung cancer H1299 cell at 2.4 uM concentration and level of cell viability determined in MTT assay; format: functional
[8] = tested on: BJ; experiment: hTERT-SEAP (Human telomerase reverse transcriptase-SEAP) activity in immortalized hTERT-BJI at 240.0 uM concentration and level of cell viability determined in MTT assay; format: functional
[9] = tested on: BJ; experiment: hTERT-SEAP (Human telomerase reverse transcriptase-SEAP) activity in immortalized hTERT-BJI at 24 uM concentration and level of cell viability determined in MTT assay; format: functional
[10] = tested on: BJ; experiment: Compound was tested for human telomerase reverse transcriptase-SEAP (hTERT-SEAP) activity in immortalized hTERT-BJI at 24 uM concentration; format: functional
[11] = tested on: NCI-H1299; experiment: hTERT-SEAP (Human telomerase reverse transcriptase-SEAP) activity in non-small cell lung cancer H1299 cell at 240.0 uM concentration and level of cell viability determined in MTT assay; format: functional
[12] = tested on: NCI-H1299; experiment: Compound was tested for human telomerase reverse transcriptase-SEAP (hTERT-SEAP) activity in non-small cell lung cancer H1299 cell at 23 uM concentration; format: functional
[13] = tested on: NCI-H1299; experiment: (§1) hTERT-SEAP (Human telomerase reverse transcriptase-SEAP) activity in non-small cell lung cancer H1299 cell at 2.3 uM concentration and level of cell viability determined in MTT assay; format: functional
[14] = tested on: NCI-H1299; experiment: (§2) Compound was tested for human telomerase reverse transcriptase-SEAP (hTERT-SEAP) activity in non-small cell lung cancer H1299 cell at 2.3 uM concentration; format: functional
[15] = tested on: BJ; experiment: Compound was tested for human telomerase reverse transcriptase-SEAP (hTERT-SEAP) activity in immortalized hTERT-BJI at 230.0 uM concentration; format: functional
[16] = tested on: NCI-H1299; experiment: hTERT-SEAP (Human telomerase reverse transcriptase-SEAP) activity in non-small cell lung cancer H1299 cell at 23 uM concentration and level of cell viability determined in MTT assay; format: functional
[17] = tested on: NCI-H1299; experiment: as §1; format: functional; remark: listed apart in the source
[18] = tested on: BJ; experiment: Compound was tested for human telomerase reverse transcriptase-SEAP (hTERT-SEAP) activity in immortalized hTERT-BJI at 23 uM concentration; format: functional
[19] = tested on: BJ; experiment: hTERT-SEAP (Human telomerase reverse transcriptase-SEAP) activity in immortalized hTERT-BJI at 23 uM concentration and level of cell viability determined in MTT assay; format: functional
[20] = tested on: NCI-H1299; experiment: Compound was tested for human telomerase reverse transcriptase-SEAP (hTERT-SEAP) activity in non-small cell lung cancer H1299 cell at 230.0 uM concentration; format: functional
[21] = tested on: BJ; experiment: hTERT-SEAP (Human telomerase reverse transcriptase-SEAP) activity in immortalized hTERT-BJI at 230.0 uM concentration and level of cell viability determined in MTT assay; format: functional
[22] = tested on: NCI-H1299; experiment: as §2; format: functional; remark: listed apart in the source
[23] = tested on: NCI-H1299; experiment: hTERT-SEAP (Human telomerase reverse transcriptase-SEAP) activity in non-small cell lung cancer H1299 cell at 230.0 uM concentration and level of cell viability determined in MTT assay; format: functional
[24] = tested on: NCI-H1299; experiment: hTERT-SEAP (Human telomerase reverse transcriptase-SEAP) activity in non-small cell lung cancer H1299 cell at 2.6 uM concentration and level of cell viability determined in MTT assay; format: functional
[25] = tested on: BJ; experiment: hTERT-SEAP (Human telomerase reverse transcriptase-SEAP) activity in immortalized hTERT-BJI at 26 uM concentration and level of cell viability determined in MTT assay; format: functional
[26] = tested on: BJ; experiment: Compound was tested for human telomerase reverse transcriptase-SEAP (hTERT-SEAP) activity in immortalized hTERT-BJI at 26 uM concentration; format: functional
[27] = tested on: NCI-H1299; experiment: hTERT-SEAP (Human telomerase reverse transcriptase-SEAP) activity in non-small cell lung cancer H1299 cell at 260.0 uM concentration and level of cell viability determined in MTT assay; format: functional
[28] = tested on: NCI-H1299; experiment: hTERT-SEAP (Human telomerase reverse transcriptase-SEAP) activity in non-small cell lung cancer H1299 cell at 26 uM concentration and level of cell viability determined in MTT assay; format: functional
[29] = tested on: BJ; experiment: hTERT-SEAP (Human telomerase reverse transcriptase-SEAP) activity in immortalized hTERT-BJI at 260.0 uM concentration and level of cell viability determined in MTT assay; format: functional
[30] = tested on: NCI-H1299; experiment: Compound was tested for human telomerase reverse transcriptase-SEAP (hTERT-SEAP) activity in non-small cell lung cancer H1299 cell at 2.6 uM concentration; format: functional
[31] = tested on: BJ; experiment: Compound was tested for human telomerase reverse transcriptase-SEAP (hTERT-SEAP) activity in immortalized hTERT-BJI at 260.0 uM concentration; format: functional
[32] = tested on: NCI-H1299; experiment: Compound was tested for human telomerase reverse transcriptase-SEAP (hTERT-SEAP) activity in non-small cell lung cancer H1299 cell at 26 uM concentration; format: functional
[33] = tested on: NCI-H1299; experiment: Compound was tested for human telomerase reverse transcriptase-SEAP (hTERT-SEAP) activity in non-small cell lung cancer H1299 cell at 260.0 uM concentration; format: functional
[34] = tested on: NCI-H1299; experiment: hTERT-SEAP (Human telomerase reverse transcriptase-SEAP) activity in non-small cell lung cancer H1299 cell at 22 uM concentration and level of cell viability determined in MTT assay; format: functional
[35] = tested on: BJ; experiment: Compound was tested for human telomerase reverse transcriptase-SEAP (hTERT-SEAP) activity in immortalized hTERT-BJI at 22 uM concentration; format: functional
[36] = tested on: NCI-H1299; experiment: hTERT-SEAP (Human telomerase reverse transcriptase-SEAP) activity in non-small cell lung cancer H1299 cell at 220.0 uM concentration and level of cell viability determined in MTT assay; format: functional
[37] = tested on: BJ; experiment: Compound was tested for cytomegalovirus or (pPCMV-SEAP) activity in immortalized hTERT-BJ1 at 22 uM concentration; format: functional, Homo sapiens
[38] = tested on: NCI-H1299; experiment: hTERT-SEAP (Human telomerase reverse transcriptase-SEAP) activity in non-small cell lung cancer H1299 cell at 2.2 uM concentration and level of cell viability determined in MTT assay; format: functional
[39] = tested on: NCI-H1299; experiment: Compound was tested for human telomerase reverse transcriptase-SEAP (hTERT-SEAP) activity in non-small cell lung cancer H1299 cell at 220.0 uM concentration; format: functional
[40] = tested on: BJ; experiment: Compound was tested for cytomegalovirus or (pPCMV-SEAP) activity in immortalized hTERT-BJ1 at 2.2 uM concentration; format: functional, Homo sapiens
[41] = tested on: BJ; experiment: pPCMV-SEAP (cytomegalovirus-SEAP) activity in immortalized hTERT-BJ1 at 220 uM concentration and level of cell viability determined in MTT assay; format: functional, Homo sapiens
[42] = tested on: BJ; experiment: hTERT-SEAP (Human telomerase reverse transcriptase-SEAP) activity in immortalized hTERT-BJI at 2.2 uM concentration and level of cell viability determined in MTT assay; format: functional
[43] = tested on: BJ; experiment: hTERT-SEAP (Human telomerase reverse transcriptase-SEAP) activity in immortalized hTERT-BJI at 220.0 uM concentration and level of cell viability determined in MTT assay; format: functional
[44] = tested on: NCI-H1299; experiment: Compound was tested for human telomerase reverse transcriptase-SEAP (hTERT-SEAP) activity in non-small cell lung cancer H1299 cell at 2.2 uM concentration; format: functional
[45] = tested on: NCI-H1299; experiment: Compound was tested for human telomerase reverse transcriptase-SEAP (hTERT-SEAP) activity in non-small cell lung cancer H1299 cell at 22 uM concentration; format: functional
[46] = tested on: BJ; experiment: pPCMV-SEAP (cytomegalovirus-SEAP) activity in immortalized hTERT-BJ1 at 2.2 uM concentration and level of cell viability determined in MTT assay; format: functional, Homo sapiens
[47] = tested on: BJ; experiment: Compound was tested for human telomerase reverse transcriptase-SEAP (hTERT-SEAP) activity in immortalized hTERT-BJI at 220.0 uM concentration; format: functional
[48] = tested on: BJ; experiment: Compound was tested for human telomerase reverse transcriptase-SEAP (hTERT-SEAP) activity in immortalized hTERT-BJI at 2.2 uM concentration; format: functional
[49] = tested on: BJ; experiment: Compound was tested for cytomegalovirus or (pPCMV-SEAP) activity in immortalized hTERT-BJ1 at 220 uM concentration; format: functional, Homo sapiens
[50] = tested on: BJ; experiment: pPCMV-SEAP (cytomegalovirus-SEAP) activity in immortalized hTERT-BJ1 at 22 uM concentration and level of cell viability determined in MTT assay; format: functional, Homo sapiens
[51] = tested on: BJ; experiment: hTERT-SEAP (Human telomerase reverse transcriptase-SEAP) activity in immortalized hTERT-BJI at 22 uM concentration and level of cell viability determined in MTT assay; format: functional

## O=C1c2cccc(SCC(O)CO)c2C(=O)c2cccc(SCC(O)CO)c21 (stereo not drawn)
[1]
  Relative SEAP activity: 81%
[2]
  Relative SEAP activity: 90%
[3]
  Relative SEAP activity: 144%
[4]
  Relative SEAP activity: 105%
[5]
  Relative viability: 103%
[6]
  Relative SEAP activity: 142%
[7]
  Relative viability: 102%
[8]
  Relative viability: 79%
[9]
  Relative viability: 86%
[10]
  Relative SEAP activity: 136%
[11]
  Relative viability: 83%

## O=C1c2cccc(Sc3ccncc3)c2C(=O)c2cccc(Sc3ccncc3)c21
[12]
  Relative SEAP activity: 103%
[13]
  Relative viability: 112%
[14]
  Relative SEAP activity: 98%
[15]
  Relative SEAP activity: 121%
[16]
  Relative viability: 45%
[17]
  Relative viability: 79%
[18]
  Relative SEAP activity: 133%
[19]
  Relative viability: 91%
[20]
  Relative SEAP activity: 89%
[21]
  Relative viability: 55%
[22]
  Relative SEAP activity: 104%
[23]
  Relative viability: 29%

## CCCC(=O)Oc1cccc2c1C(=O)c1cccc(OC(=O)CCC)c1C2=O
[24]
  Relative viability: 107%
[25]
  Relative viability: 106%
[26]
  Relative SEAP activity: 119%
[27]
  Relative viability: 87%
[28]
  Relative viability: 106%
[29]
  Relative viability: 85%
[30]
  Relative SEAP activity: 114%
[31]
  Relative SEAP activity: 134%
[32]
  Relative SEAP activity: 118%
[33]
  Relative SEAP activity: 111%

## Nc1ccccc1Sc1cccc2c1C(=O)c1cccc(Sc3ccccc3N)c1C2=O
[34]
  Relative viability: 50%
[35]
  Relative SEAP activity: 141%
[36]
  Relative viability: 14%
[37]
  Relative SEAP activity: 102%
[38]
  Relative viability: 94%
[39]
  Relative SEAP activity: 59%
[40]
  Relative SEAP activity: 103%
[41]
  Relative viability: 48%
[42]
  Relative viability: 103%
[43]
  Relative viability: 25%
[44]
  Relative SEAP activity: 108%
[45]
  Relative SEAP activity: 96%
[46]
  Relative viability: 108%
[47]
  Relative SEAP activity: 115%
[48]
  Relative SEAP activity: 136%
[49]
  Relative SEAP activity: 122%
[50]
  Relative viability: 109%
[51]
  Relative viability: 107%

## O=C1c2cccc(Sc3ncccn3)c2C(=O)c2cccc(Sc3ncccn3)c21
[12]
  Relative SEAP activity: 110%
[13]
  Relative viability: 104%
[14]
  Relative SEAP activity: 137%
[15]
  Relative SEAP activity: 61%
[16]
  Relative viability: 99%
[17]
  Relative viability: 107%
[18]
  Relative SEAP activity: 125%
[19]
  Relative viability: 103%
[20]
  Relative SEAP activity: 49%
[21]
  Relative viability: 73%
[22]
  Relative SEAP activity: 105%
[23]
  Relative viability: 44%
